Counter-ions that a name gives are not always drawn. Like-named read-outs stand apart in the source and are kept apart here.
Tests used:
[1] = background; cited from earlier work
[2] = peripheral administration; background; cited from earlier work
[3] = peripheral administration; background; cited from earlier work; remark: listed apart in the source
AcCh receptors = conditions: background; cited from earlier work
[4] = target: central cholinergic receptors; assay: 3H-oxotremorine-M (Oxo-M) displacement from rat brain homogenates; assay type: binding; conditions: displacement of 3H-oxotremorine-M, pH 7.4, 40 min, 30° C
Procedure: (§1) Affinity to central cholinergic receptors in vitro was measured as the ability of the compounds to displace ^3 H-oxotremorine-M (Oxo-M) from rat brain homogenates, while affinity to central muscarinic M-1-receptors in vitro was measured as the ability of the compounds to displace ^3 H-pirenzepin (Pz) from rat brain homogenates.
^3 H-oxotremorine M binding
was performed essentially as described by Birdsdall et al., 1980. Briefly, rat brains were homogenized in 100 vol (w/v) 10 mM Na,K-phosphate buffer (pH 7.4) and aliquots incubated with ^3 H-oxotremorine M (84.9 Ci/m-mol, NEN) alone or in the presence of test compound in a total volume of 1.5 ml for 40 min. at 30° C. The reaction was stopped by adding 5 ml cold buffer and filtered through Whatman GF/B filters soaked previously in 0.1% polyethylenimin (Sigma) for minimum 30 min. The filters were washed once with the same volume of buffer, transferred to scintillation vials and extracted in scintillation fluid (Pico-fluor 15, Packard) for at least two hours before counted in a liquid scintillation spectrometer (Beckman LS 1800). Non-specific binding was estimated at 10 μM atropine and all estimations made in triplicate. At least two displacement curves were made for each compound tested.
Birdsdall N. J. M., Hulme E. C., and Burgen A. S. V. (1980). "The Character of Muscarinic Receptors in Different Regions of the Rat Brain". Proc. Roy. […] London (Series B) 207, 1.

[5] = target: T1, central muscarinic M-1-receptors (Rattus norvegicus, UniProt P08482); assay: 3H-pirenzepine (Pz) displacement from rat brain homogenates; assay type: binding
T1 sequence (P08482 1-460): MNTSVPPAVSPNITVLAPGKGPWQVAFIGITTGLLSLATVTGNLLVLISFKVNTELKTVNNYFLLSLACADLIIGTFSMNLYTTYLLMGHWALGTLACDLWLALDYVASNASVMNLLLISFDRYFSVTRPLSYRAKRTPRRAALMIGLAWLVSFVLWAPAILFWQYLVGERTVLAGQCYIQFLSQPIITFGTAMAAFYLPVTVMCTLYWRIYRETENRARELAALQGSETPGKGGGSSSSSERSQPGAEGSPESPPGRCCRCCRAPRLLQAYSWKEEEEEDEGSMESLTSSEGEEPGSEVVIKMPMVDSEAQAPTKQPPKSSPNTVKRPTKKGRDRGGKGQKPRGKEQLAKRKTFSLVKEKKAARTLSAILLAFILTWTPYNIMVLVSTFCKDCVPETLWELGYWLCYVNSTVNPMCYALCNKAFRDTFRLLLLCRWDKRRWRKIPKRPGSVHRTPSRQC
Procedure: as §1
was performed essentially as described by Watson et al., 1983, the conditions being very much the same as for ^3 H-oxotremorine binding, except that aliquots were incubated with 1.0 nM ^3 H-pirenzepine for 60 min. at 25° C. and that the reaction was stopped by direct filtration followed by 3 washes with 4 ml buffer.
Watson, M., Yamamura, H. I., and Roeske, W. R. (1983). "A unique regulatory profile and regional distribution of ^3 H-pirenzepin binding in the rat provide evidence for distinct M1 and M2 muscarinic receptor subtypes". Life Sci. 32 (1983) 3001-3011.

[6] = displacement of 1.0 nM 3H-pirenzepine, rat brain homogenates, 60 min, 25° C, read-out: Pz, IC50

Row | IC50 [4] | IC50 [5, 6] | Structure (SMILES) | other results
1 | – | – | COC(=O)C1=CCCN(C)C1 [Arecoline, methyl 1-methyl-1,2,5,6-tetrahydropyridine-3-carboxylate] | hydrolysis of ester group in vivo [1]: very rapidly hydrolyzed in vivo; penetration of blood-brain barrier [2]: capable of penetrating the BBB; central effects [3]: very weak and frequently negligible central effects; AcCh agonist activity (AcCh receptors): AcCh agonist
2 | 710 nM | 160 nM | Cc1nc(C2=CCCN(C)C2)nn1C [Compound 63, 1,5-Dimethyl-3-(1-methyl-1,2,5,6-tetraydro-3-pyridyl)-1,2,4-triazole, fumarate] | –
3 | 220 nM | 4200 nM | COc1cnc(C2=CCCNC2)o1 [Compound 81, 5-Methoxy-2-(1,2,5,6-tetrahydro-3-pyridyl)-oxazole, 1.25 fumarate] | –
4 | 190 nM | 1300 nM | Cc1cnc(C2=CCCNC2)o1 [Compound 76, 5-Methyl-2-(1,2,5,6-tetrahydro-3-pyridyl)-oxazole, fumarate] | –

Row | Structure (SMILES) | IC50 [4] | IC50 [5, 6] | other results
5 | C#CCn1nnc(C2CCCNC2)n1 (stereo not drawn) [Compound 26, 2-(2-Propynyl)-5-(3-piperidyl)2H-tetrazole, hydrochloride] | 44 nM | – | IC50 [5]: 400 nM
